Measured values: patent publication EP0558245A1, “Heterobicyclic compounds as antagogists of alpha-1 adrenergic and SHT1A receptors” (priority 1992, dated 1993)
Counter-ions that a name gives are not always drawn. Like-named read-outs stand apart in the source and are kept apart here.

Assays:
α₁ receptors = experiment: [3H]prazosin binding (α1 receptors), rat cerebral cortex membranes; settings: rat cerebral cortex crude membranes, [3H]prazosin 0.35 nM, 25°C 30 min; read-out: Receptor Binding IC50 (nM) α1
5HT1A receptors = target: T1, 5HT1A receptors (Rattus norvegicus, UniProt P19327); experiment: [3H]8-OH-DPAT binding (5HT1A receptors), rat hippocampus membranes; settings: rat hippocampus crude membranes, [3H]8-OH-DPAT 1.0 nM, 25°C 30 min; read-out: Receptor Binding IC50 (nM) 5-HT1a
T1 construct: Rat hippocampi were homogenized; from tissue; host or cells: rat hippocampus membranes
T1 sequence (P19327 1-422): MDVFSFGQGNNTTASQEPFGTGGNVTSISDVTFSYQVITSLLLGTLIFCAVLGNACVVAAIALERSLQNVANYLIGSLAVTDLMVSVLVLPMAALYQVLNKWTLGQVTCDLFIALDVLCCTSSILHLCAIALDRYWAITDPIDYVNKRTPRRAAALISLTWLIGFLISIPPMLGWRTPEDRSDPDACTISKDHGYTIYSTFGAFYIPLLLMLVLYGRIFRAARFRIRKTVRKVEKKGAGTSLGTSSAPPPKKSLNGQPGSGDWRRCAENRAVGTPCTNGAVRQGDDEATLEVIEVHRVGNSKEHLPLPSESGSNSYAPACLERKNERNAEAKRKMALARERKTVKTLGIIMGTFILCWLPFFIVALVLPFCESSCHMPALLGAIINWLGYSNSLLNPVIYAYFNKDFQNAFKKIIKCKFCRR
Protocol: Rat hippocampi were homogenized in 50 volumes of original wet weight of ice-cold 50 mM Tris-HCl buffer pH 7.4. The homogenates were centrifuged at 48,000 x g for 10 minutes, and the pellets were resuspended in the same volume of ice-cold buffer, incubated for 10 minutes at 37°C, centrifuged and resuspended two more times. The final pellets obtained were resuspended in the same volume of buffer and incubated according to the conditions reported in the table below.
The incubations were terminated after the appropriate time (see table) by rapid filtration through Whatman GF/B filters using a Brandel cell harvester. The filters were washed twice with 15 ml of ice-cold buffer (see table). The radioactivity retained on the filters was determined by liquid scintillation counting. Nonspecific binding (which amounted generally to 10-30%) was evaluated by adding high concentrations of the specific displacers (see table). All the compounds were initially tested at 1x10⁻⁶ M concentration, and in the presence of significant displacing activity, a complete competition curve was generated (down to a concentration of 10⁻¹¹ M). All the samples were run in triplicate.
The competition curves were always analyzed (to evaluate the IC₅₀ values) by non linear curve fitting of the logistic equation according to the method reported by De Lean et al. (Am. J. Physiol., 235, E97, 1978), utilizing the ALLFIT program [publically available from the National Institutes of Health (N.I.H.) Bethesda, Maryland, USA] written for the IBM PC.

[1] = Acute toxicity in mice after intraperitoneal and oral administration; settings: mouse, in vivo
How it was run: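 Female albino Swiss mice (20-30 g) dosed i.p. or orally at four log-scaled doses in 0.5% Methocel (10 ml/kg), 4 mice/dose. Mortality recorded at 7 days; LD₅₀ with fiducial limits by Weil's method.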

rat bladder strips = experiment: K+-induced contractions of rat bladder strips; assay type: cell-based; settings: 80 mM KCl, drug added 30 minutes before
Protocol: The whole bladder of the rat was removed and immediately placed in Krebs solution warmed at 37°C. […] Each strip was placed in a 10 ml organ bath and connected, under a constant load of 1 g, to an isometric strain gauge (DY-1 Basile, Comerio, Varese, Italy). […] After a 60 minutes equilibration period the strips were exposed to 80 mM KCl (final concentration). […] When the tonic contraction was stable, the strips were washed and 30 minutes later a new contraction was induced. After having recorded two or more reproducible responses, one concentration of the tested drugs was added to the bath and 30 minutes later a new contraction was induced. The experimental groups consisted of at least two preparations taken from different animals for each concentration of drug tested. The IC₅₀ values of inhibition of agonist-induced contractions were evaluated by linear regression analysis.

[2] = system: noradrenaline induced contraction of urethra; experiment: Effects on urethral contractions (noradrenaline-induced) in anaesthetized dogs; assay type: in vivo; settings: for ED50: Canis lupus familiaris, iv; for DBP/Urethra ratio: ratio between the active doses (selectivity index), * = non-selective: substantial effect on both urethra and DBP
Excerpt: (§1) In order to monitor systemic blood pressure (BP), a PE catheter was introduced into the aortic arch through the right common carotid artery.
(§2) A collateral of the left femoral vein was cannulated for infusion of anaesthetic, and the right femoral vein was cannulated for administration of drugs. For intrarterial (i.a.) injection of noradrenaline (NA), a PE catheter was introduced into the lower portion of abdominal aorta via the right external iliac artery. Through such procedure, NA was selectively distributed to the lower urinary tract. Via a midline laparotomy, the urinary bladder and proximal urethra were exposed. In order to prevent the filling of the bladder, the two ureters were cannulated and the urine led outside. In order to record the prostatic urethral pressure, a Mikro-tip catheter (6 F) was introduced into the bladder via the external urethral meatus, and withdrawn until the pressure transducer was positioned in the prostatic urethra. A ligature was secured between the neck of the bladder and urethra to isolate the response of the latter and avoid any interaction with the bladder. Another ligature was put around the Mikro-tip catheter at the external urethral meatus, to secure the catheter itself. After a stabilizing period following surgical procedure (30 min), in which arterial and prostatic urethral pressure were continuously monitored as basal values, i.a. administration of NA was made at intervals of 10 min. The dose of NA chosen was such to produce an increase of at least 100% in urethral pressure. The test compounds were administered i.v. in a cumulative manner with intervals of 15-20 min between administrations. I.a. injections of NA were repeated approximately 5 min. after every dosing of test compound. Dose response curves were constructed computing the percentage inhibition to the increase in urethral pressure (NA induced), and the percentage drop in blood pressure produced by the test compound.

diastolic blood pressure = experiment: Effects on blood pressure in anaesthetized dogs; assay type: in vivo; settings: Canis lupus familiaris, iv
Excerpt: as §1, §2

[3] = ip, female albino Swiss mice, intraperitoneal, mortality recorded 7 days after administration, read-out: Acute Toxicity in Mice LD50 (mg/kg) i.p.
[4] = female albino Swiss mice, oral, mortality recorded 7 days after administration, read-out: Acute Toxicity in Mice LD50 (mg/kg) p.o.
[5] = phasic contraction, read-out: K+ Stimulation of Rat Bladder IC50 (μM) Contractions Phasic
[6] = tonic contraction, read-out: K+ Stimulation of Rat Bladder IC50 (μM) Contractions Tonic
[7] = anaesthetized male beagle dogs, i.v. cumulative, active dose in inhibiting by 50% the noradrenaline induced contraction of urethra, read-out: Urethra ED50
[8] = anaesthetized male beagle dogs, i.v. cumulative, active dose in lowering diastolic blood pressure by 25%, read-out: DBP ED25

COc1ccccc1N1CCN(CCCOc2cccc3c(=O)c(C)c(-c4ccccc4)oc23)CC1.Cl.Cl [Example 40, 8-{3-[4-(2-methoxyphenyl)-1-piperazinyl]-propoxy}-3-methyl-4-oxo-2-phenyl-4H-1-benzopyran dihydrochloride]
IC50 (α₁ receptors): 75 nM | IC50 (5HT1A receptors): 83 nM | LD50 at 168 h [1, 3]: 140 mg/kg | LD50 at 168 h [1, 4]: 349 mg/kg | IC50 (rat bladder strips; [5]): 0.5 µM | IC50 (rat bladder strips; [6]): 0.9 µM | ED50 [2, 7]: 11 µg/kg | DBP/Urethra ratio [2]: 13.8 | ED25 (diastolic blood pressure; [8]): 152 µg/kg

COc1cc2nc(N3CCN(C(=O)c4ccco4)CC3)nc(N)c2cc1OC [Prazosin, 1-(4-amino-6,7-dimethoxy-2-quinazonlinyl)-4-(2-furoyl)-piperazine, reference compound]
ED50 [2, 7]: 3.6 µg/kg | DBP/Urethra ratio [2]: 1.8* | selectivity for the mammalian lower urinary tract (antagonizing urethral contractions versus lowering blood pressure) ([2]; statement in words): do not exhibit such selectivity | ED25 (diastolic blood pressure; read-out: DBP ED25 (µg/kg)): 6.6 µg/kg

COc1ccccc1N1CCN(CCCNC(=O)c2cccc3c(=O)c(C)c(-c4ccccc4)oc23)CC1 [Example 11, 8-{3-[4-(2-methoxyphenyl)-1-piperazinyl]-propylcarbamoyl}-3-methyl-4-oxo-2-phenyl-4H-1-benzopyran dihydrochloride hemihydrate]
IC50 (α₁ receptors): 29 nM | IC50 (5HT1A receptors): 9 nM | LD50 at 168 h [1, 3]: 247 mg/kg | LD50 at 168 h [1, 4]: 297 mg/kg | IC50 (rat bladder strips; [5]): 2.9 µM | IC50 (rat bladder strips; [6]): 3 µM | ED50 [2, 7]: 1.4 µg/kg | DBP/Urethra ratio [2]: 278.6 | ED25 (diastolic blood pressure; [8]): 390 µg/kg

COc1ccccc1N1CCN(CCOCc2cccc3c(=O)c(C)c(-c4ccccc4)oc23)CC1.Cl.Cl [Example 27, 8-{2-[4-(2-methoxyphenyl)-1-piperazinyl]-ethoxymethyl}-3-methyl-4-oxo-2-phenyl-4H-1-benzopyran dihydrochloride]
IC50 (α₁ receptors): 23 nM | IC50 (5HT1A receptors): 124 nM | LD50 at 168 h [1, 3]: 399 mg/kg | LD50 at 168 h [1, 4]: > 3000 mg/kg | IC50 (rat bladder strips; [5]): 1 µM | IC50 (rat bladder strips; [6]): 0.8 µM | ED50 [2, 7]: 3.2 µg/kg | DBP/Urethra ratio [2]: 3.1* | ED25 (diastolic blood pressure; [8]): 9.8 µg/kg

COc1ccccc1N1CCN(CCCOC(=O)c2cccc3c(=O)c(C)c(-c4ccccc4)oc23)CC1.Cl.Cl [Example 5, 8-{3-[4-(2-methoxyphenyl)-1-piperazinyl]-propoxycarbonyl}-3-methyl-4-oxo-2-phenyl-4H-1-benzopyran dihydrochloride]
IC50 (α₁ receptors): 20 nM | IC50 (5HT1A receptors): 19 nM | LD50 at 168 h [1, 3]: 621 mg/kg | LD50 at 168 h [1, 4]: > 3000 mg/kg | ED50 [2, 7]: 37 µg/kg | DBP/Urethra ratio [2]: 29.0 | ED25 (diastolic blood pressure; [8]): 1070 µg/kg

COc1ccccc1N1CCN(CCNC(=O)c2cccc3c(=O)c(C)c(-c4ccccc4)oc23)CC1 [Example 13, 8-{2-[4-(2-methoxyphenyl)-1-piperazinyl]-ethylcarbamoyl}-3-methyl-4-oxo-2-phenyl-4H-1-benzopyran monohydrochloride hemihydrate]
IC50 (α₁ receptors): 68 nM | IC50 (5HT1A receptors): 229 nM | LD50 at 168 h [1, 3]: > 1000 mg/kg | LD50 at 168 h [1, 4]: > 3000 mg/kg | IC50 (rat bladder strips; [5]): 10 µM | IC50 (rat bladder strips; [6]): 10 µM | ED50 [2, 7]: 16 µg/kg | DBP/Urethra ratio [2]: 13.4 | ED25 (diastolic blood pressure; [8]): 215 µg/kg

COc1ccccc1N1CCN(CC(O)c2cccc3c(=O)c(C)c(-c4ccccc4)oc23)CC1.Cl (stereo not drawn) [Example 17, 8-{1-hydroxy-2-[4-(2-methoxyphenyl)-1-piperazinyl]-ethyl}-3-methyl-4-oxo-2-phenyl-4H-1-benzopyran hydrochloride]
IC50 (α₁ receptors): 59 nM | IC50 (5HT1A receptors): 910 nM | LD50 at 168 h [1, 3]: 299 mg/kg | LD50 at 168 h [1, 4]: 608 mg/kg | IC50 (rat bladder strips; [5]): 8.8 µM | IC50 (rat bladder strips; [6]): 3.8 µM | ED50 [2, 7]: 10 µg/kg | DBP/Urethra ratio [2]: 0.6* | ED25 (diastolic blood pressure; [8]): 6.2 µg/kg

COc1ccccc1N1CCN(CCCC(O)c2cccc3c(=O)c(C)c(-c4ccccc4)oc23)CC1.Cl.O (stereo not drawn) [Example 21, 8-{1-hydroxy-4-[4-(2-methoxyphenyl)-1-piperazinyl]-butyl}-3-methyl-4-oxo-2-phenyl-4H-1-benzopyran hydrochloride monohydrate]
IC50 (α₁ receptors): 17 nM | IC50 (5HT1A receptors): 33 nM | LD50 at 168 h [1, 3]: 297 mg/kg | LD50 at 168 h [1, 4]: 566 mg/kg | ED50 ([2]; read-out: Urethra ED50 (µg/kg)): 6.6 µg/kg | DBP/Urethra ratio [2]: 19.2 | ED25 (diastolic blood pressure; read-out: DBP ED25 (µg/kg)): 127 µg/kg

COc1ccccc1N1CCN(CCCCCOc2cccc3c(=O)c(C)c(-c4ccccc4)oc23)CC1.Cl [Example 42, 8-{5-[4-(2-methoxyphenyl)-1-piperazinyl]-pentyloxy}-3-methyl-4-oxo-2-phenyl-4H-1-benzopyran hydrochloride]
IC50 (α₁ receptors): 111 nM | IC50 (5HT1A receptors): 39 nM | LD50 at 168 h [1, 3]: 459 mg/kg | LD50 at 168 h [1, 4]: 2160 mg/kg | IC50 (rat bladder strips; [5]): 10 µM | IC50 (rat bladder strips; [6]): 10 µM | ED50 [2, 7]: 31 µg/kg | DBP/Urethra ratio [2]: 13.0 | ED25 (diastolic blood pressure; [8]): 404 µg/kg

COc1ccccc1N1CCN(CC(O)COc2cccc3c(=O)c(C)c(-c4ccccc4)oc23)CC1.Cl (stereo not drawn) [Example 45, 8-{2-hydroxy-3-[4-(2-methoxyphenyl)-1-piperazinyl]-propoxy}-3-methyl-4-oxo-2-phenyl-4H-1-benzopyran hydrochloride]
IC50 (α₁ receptors): 15 nM | IC50 (5HT1A receptors): 106 nM | LD50 at 168 h [1, 3]: 329 mg/kg | LD50 at 168 h [1, 4]: 1730 mg/kg | ED50 [2, 7]: 16.4 µg/kg | DBP/Urethra ratio [2]: 11.3 | ED25 (diastolic blood pressure; [8]): 186 µg/kg

COc1ccccc1N1CCN(CCCCOc2cccc3c(=O)c(C)c(-c4ccccc4)oc23)CC1.Cl.Cl
LD50 at 168 h ([1]; ip, read-out: Acute Toxicity in Mice LD50 (mg/kg) i.p.): 399 mg/kg | LD50 at 168 h ([1]; po, read-out: Acute Toxicity in Mice LD50 (mg/kg) p.o.): 2240 mg/kg | ED50 ([2]; read-out: Urethra ED50 (µg/kg)): 57 µg/kg | DBP/Urethra ratio [2]: 13.1 | ED25 (diastolic blood pressure; read-out: DBP ED25 (µg/kg)): 745 µg/kg

Cc1c(-c2ccccc2)oc2c(C(=O)OC(C)(C)CN3CCCCC3)cccc2c1=O.Cl [Terflavoxate, 8-(1,1-dimethyl-2-piperidino-ethoxycarbonyl)-3-methyl-4-oxo-2-phenyl-4H-1-benzopyran hydrochloride, reference compound]
ED50 [2, 7]: > 10000 µg/kg | effect on urethral contractions ([2]; statement in words): no effect on urethral contractions | ED25 (diastolic blood pressure; [8]): 6060 µg/kg

COc1ccccc1N1CCN(CCCS(=O)(=O)c2cccc3c(=O)c(C)c(-c4ccccc4)oc23)CC1.Cl [Example 47, 8-{3-[4-(2-methoxyphenyl)-1-piperazinyl]-propylsulphonyl}-3-methyl-4-oxo-2-phenyl-4H-1-benzopyran hydrochloride]
IC50 (α₁ receptors): 36 nM | IC50 (5HT1A receptors): 23 nM | LD50 at 168 h [1, 3]: 330 mg/kg | LD50 at 168 h [1, 4]: 1050 mg/kg | IC50 (rat bladder strips; [5]): 2.7 µM | IC50 (rat bladder strips; [6]): 5.2 µM | ED50 [2, 7]: 35 µg/kg | DBP/Urethra ratio [2]: 15.1 | ED25 (diastolic blood pressure; [8]): 530 µg/kg
